Source: patent US20180244699A1, “1-HYDROXY-3H-2,1-BENZOXABOROLE DERIVATIVES AND THEIR USE AS MICROBIOCIDES” (Syngenta Participations AG, priority 2015, published 2018)

What was measured:
Pythium ultimum = Pythium ultimum / liquid culture (seedling damping off); type: cell-based; conditions: Globisporangium ultimum, growth inhibition photometrically 2-3 days after application, compared to untreated control
Outline: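 Fungal mycelia fragments and oospores from fresh liquid culture mixed into potato dextrose broth and added to DMSO solutions of test compound. Incubated at 24° C.; growth inhibition read photometrically 2-3 days after application.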

Phytophthora infestans = test: whole plant or invertebrate; type: in vivo; conditions: in Solanum lycopersicum, foliar, read-out: control of Phytophthora infestans
[1] = test system: Monographella nivalis (Microdochium nivale); test: Monographella nivalis (Microdochium nivale) / liquid culture (foot rot cereals); type: cell-based; conditions: growth inhibition photometrically 4-5 days after application, compared to untreated control
Outline: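 Conidia from cryogenic storage were mixed into potato dextrose broth and added to wells holding test compound in DMSO. Incubation was at 24° C, with growth inhibition measured photometrically 4-5 days after application.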

[2] = test system: Glomerella lagenarium (Colletotrichum lagenarium); test: Glomerella lagenarium (Colletotrichum lagenarium) / liquid culture (anthracnose); type: cell-based; conditions: Colletotrichum orbiculare, growth inhibition photometrically 3-4 days after application, compared to untreated control
Protocol: 3. Glomerella lagenarium (Colletotrichum lagenarium)/Liquid Culture (Anthracnose) Conidia of the fungus from cryogenic storage are directly mixed into nutrient broth (PDB potato dextrose broth). After placing a (DMSO) solution of test compound into a microtiter plate (96-well format), the nutrient broth containing the fungal spores is added. The test plates are incubated at 24° C. and the inhibition of growth is measured photometrically 3-4 days after application.

Gaeumannomyces graminis = Gaeumannomyces graminis / liquid culture (take-all of cereals); type: cell-based; conditions: growth inhibition photometrically 4-5 days after application, compared to untreated control
Outline: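 Mycelial fragments from cryogenic storage in potato dextrose broth added to compound in DMSO, 96-well format. Incubated at 24° C; growth inhibition read photometrically 4-5 days after application.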

[3] = test system: Mycosphaerella graminicola (Septoria tritici); test: Mycosphaerella graminicola (Septoria tritici) / liquid culture (Septoria blotch); type: cell-based; conditions: Zymoseptoria tritici, growth inhibition photometrically 4-5 days after application, compared to untreated control
Protocol: 18. Mycosphaerella graminicola (Septoria tritici)/Liquid Culture (Septoria Blotch) Conidia of the fungus from cryogenic storage are directly mixed into nutrient broth (PDB potato dextrose broth). After placing a (DMSO) solution of test compound into a microtiter plate (96-well format), the nutrient broth containing the fungal spores is added. The test plates are incubated at 24° C. and the inhibition of growth is determined photometrically 4-5 days after application.

[4] = test system: Thanatephorus cucumeris (Rhizoctonia solani); test: Thanatephorus cucumeris (Rhizoctonia solani) / liquid culture (foot rot, damping-off); type: cell-based; conditions: growth inhibition photometrically 3-4 days after application, compared to untreated control
Protocol: 16. Thanatephorus cucumeris (Rhizoctonia solani)/Liquid Culture (Foot Rot, Damping-Off) Mycelia fragments of a newly grown liquid culture of the fungus are directly mixed into nutrient broth (PDB potato dextrose broth). After placing a (DMSO) solution of the test compounds into a microtiter plate (96-well format), the nutrient broth containing the fungal material is added. The test plates are incubated at 24° C. and the inhibition of growth is determined photometrically 3-4 days after application.

Sclerotinia sclerotiorum = Sclerotinia sclerotiorum / liquid culture (cottony rot); type: cell-based; conditions: growth inhibition photometrically 3-4 days after application, compared to untreated control
Protocol: 17. Sclerotinia sclerotiorum/Liquid Culture (Cottony Rot) Mycelia fragments of a newly grown liquid culture of the fungus are directly mixed into nutrient broth (PDB potato dextrose broth). After placing a (DMSO) solution of test compound into a microtiter plate (96-well format) the nutrient broth containing the fungal material is added. The test plates are incubated at 24° C. and the inhibition of growth is determined photometrically 3-4 days after application.

[5] = test system: Mycosphaerella arachidis (Cercospora arachidicola); test: Mycosphaerella arachidis (Cercospora arachidicola) / liquid culture (early leaf spot); type: cell-based; conditions: growth inhibition photometrically 4-5 days after application, compared to untreated control
Protocol: 9. Mycosphaerella arachidis (Cercospora arachidicola)/Liquid Culture (Early Leaf Spot) Conidia of the fungus from cryogenic storage are directly mixed into nutrient broth (PDB potato dextrose broth). After placing a (DMSO) solution of test compound into a microtiter plate (96-well format), the nutrient broth containing the fungal spores is added. The test plates are incubated at 24° C. and the inhibition of growth is determined photometrically 4-5 days after application.

[6] = test system: Puccinia recondite f. sp. tritici; test: Puccinia recondite f. sp. tritici / wheat / leaf disc preventative (brown rust); type: in vivo; conditions: foliar, wheat leaf segments, inoculated 1 day after application, compared to untreated control
Protocol: 13. Puccinia recondite f. Sp. Tritici/Wheat/Leaf Disc Preventative (Brown Rust) Wheat leaf segments cv. Kanzler are placed on agar in multiwell plates (24-well format) and sprayed with the formulated test compound diluted in water. The leaf disks are inoculated with a spore suspension of the fungus 1 day after application. The inoculated leaf segments are incubated at 19° C. and 75% rh under a light regime of 12 h light/12 h darkness in a climate cabinet and the activity of a compound is assessed as percent disease control compared to untreated when an appropriate level of disease damage appears in untreated check leaf segments (7-9 days after application).

COC(=O)c1ccc2c(c1OC)B(O)OC2 [Compound 1, methyl 1-hydroxy-7-methoxy-3H-2,1-benzoxaborole-6-carboxylate]
≥ 80%: inhibition of growth at 20 ppm (Pythium ultimum) | pest or weed control at 200 ppm (Phytophthora infestans) | inhibition of growth at 20 ppm [1] | inhibition of growth at 20 ppm [2] | inhibition of growth at 20 ppm (Gaeumannomyces graminis) | inhibition of growth at 20 ppm [3] | inhibition of growth at 20 ppm [4] | inhibition of growth at 20 ppm (Sclerotinia sclerotiorum) | inhibition of growth at 20 ppm [5]

COC(=O)c1ccc2c(c1Cl)B(O)OC2 [Compound 3, methyl 7-chloro-1-hydroxy-3H-2,1-benzoxaborole-6-carboxylate]
≥ 80%: pest or weed control at 200 ppm [6] | inhibition of growth at 20 ppm (Pythium ultimum) | pest or weed control at 200 ppm (Phytophthora infestans) | inhibition of growth at 20 ppm [1] | inhibition of growth at 20 ppm [2] | inhibition of growth at 20 ppm [3] | inhibition of growth at 20 ppm [4] | inhibition of growth at 20 ppm (Sclerotinia sclerotiorum) | inhibition of growth at 20 ppm [5]

COc1c(C(=O)NCc2ccccc2F)ccc2c1B(O)OC2 [Compound 5, N-[(2-fluorophenyl)methyl]-1-hydroxy-7-methoxy-3H-2,1-benzoxaborole-6-carboxamide]
≥ 80%: pest or weed control at 200 ppm [6] | inhibition of growth at 20 ppm (Pythium ultimum)

COc1c(C(=O)NCc2ccc(Cl)cc2)ccc2c1B(O)OC2 [Compound 6, N-[(4-chlorophenyl)methyl]-1-hydroxy-7-methoxy-3H-2,1-benzoxaborole-6-carboxamide]
≥ 80%: pest or weed control at 200 ppm [6] | inhibition of growth at 20 ppm (Pythium ultimum) | inhibition of growth at 20 ppm [1] | inhibition of growth at 20 ppm (Gaeumannomyces graminis)

CNC(=O)c1ccc2c(c1OC)B(O)OC2 [Compound 8, 1-hydroxy-7-methoxy-N-methyl-3H-2,1-benzoxaborole-6-carboxamide]
≥ 80%: pest or weed control at 200 ppm [6] | inhibition of growth at 20 ppm (Pythium ultimum) | inhibition of growth at 20 ppm [5]

COc1c(C(=O)OCC(F)F)ccc2c1B(O)OC2 [Compound 12, 2,2-difluoroethyl 1-hydroxy-7-methoxy-3H-2,1-benzoxaborole-6-carboxylate]
≥ 80%: inhibition of growth at 20 ppm (Pythium ultimum) | pest or weed control at 200 ppm (Phytophthora infestans) | inhibition of growth at 20 ppm [1] | inhibition of growth at 20 ppm [2] | inhibition of growth at 20 ppm (Gaeumannomyces graminis) | inhibition of growth at 20 ppm [3]

COc1c(C(=O)NCCc2ccccc2)ccc2c1B(O)OC2 [Compound 33, 1-hydroxy-7-methoxy-N-phenethyl-3H-2,1-benzoxaborole-6-carboxamide]
≥ 80%: pest or weed control at 200 ppm [6] | inhibition of growth at 20 ppm [1]

COc1c(C(=O)NC(C)C)ccc2c1B(O)OC2 [Compound 34, 1-hydroxy-N-isopropyl-7-methoxy-3H-2,1-benzoxaborole-6-carboxamide]
≥ 80%: pest or weed control at 200 ppm [6] | inhibition of growth at 20 ppm (Pythium ultimum)

COc1c(C(=O)Nc2cnoc2)ccc2c1B(O)OC2 [Compound 35, 1-hydroxy-N-isoxazol-4-yl-7-methoxy-3H-2,1-benzoxaborole-6-carboxamide]
≥ 80%: pest or weed control at 200 ppm [6] | inhibition of growth at 20 ppm (Pythium ultimum)

COC(=O)C#CCOC(=O)c1ccc2c(c1OC)B(O)OC2 [Compound 79, (4-methoxy-4-oxo-but-2-ynyl) 1-hydroxy-7-methoxy-3H-2,1-benzoxaborole-6-carboxylate]
≥ 80%: inhibition of growth at 20 ppm (Pythium ultimum) | inhibition of growth at 20 ppm [1] | inhibition of growth at 20 ppm [2] | inhibition of growth at 20 ppm (Gaeumannomyces graminis) | inhibition of growth at 20 ppm [3] | inhibition of growth at 20 ppm [4] | inhibition of growth at 20 ppm (Sclerotinia sclerotiorum) | inhibition of growth at 20 ppm [5]

COc1c(C(=O)OCn2cccn2)ccc2c1B(O)OC2 [Compound 86, pyrazol-1-ylmethyl 1-hydroxy-7-methoxy-3H-2,1-benzoxaborole-6-carboxylate]
≥ 80%: inhibition of growth at 20 ppm (Pythium ultimum) | pest or weed control at 200 ppm (Phytophthora infestans) | inhibition of growth at 20 ppm [1] | inhibition of growth at 20 ppm [2] | inhibition of growth at 20 ppm (Gaeumannomyces graminis) | inhibition of growth at 20 ppm [3] | inhibition of growth at 20 ppm [4] | inhibition of growth at 20 ppm (Sclerotinia sclerotiorum) | inhibition of growth at 20 ppm [5]

CCN(CC)C(=O)COC(=O)c1ccc2c(c1OC)B(O)OC2 [Compound 94, [2-(diethylamino)-2-oxo-ethyl] 1-hydroxy-7-methoxy-3H-2,1-benzoxaborole-6-carboxylate]
≥ 80%: inhibition of growth at 20 ppm (Pythium ultimum) | inhibition of growth at 20 ppm [1] | inhibition of growth at 20 ppm [2] | inhibition of growth at 20 ppm (Gaeumannomyces graminis) | inhibition of growth at 20 ppm [3] | inhibition of growth at 20 ppm [4] | inhibition of growth at 20 ppm (Sclerotinia sclerotiorum) | inhibition of growth at 20 ppm [5]

CCC1=NC(C)(COC(=O)c2ccc3c(c2OC)B(O)OC3)CO1 (stereo not shown) [Compound 99, (2-ethyl-4-methyl-5H-oxazol-4-yl)methyl 1-hydroxy-7-methoxy-3H-2,1-benzoxaborole-6-carboxylate]
≥ 80%: inhibition of growth at 20 ppm (Pythium ultimum) | inhibition of growth at 20 ppm [1] | inhibition of growth at 20 ppm [2] | inhibition of growth at 20 ppm (Gaeumannomyces graminis) | inhibition of growth at 20 ppm [3] | inhibition of growth at 20 ppm [4] | inhibition of growth at 20 ppm (Sclerotinia sclerotiorum) | inhibition of growth at 20 ppm [5]

COc1c(C(=O)OCn2nc(C)cc2C)ccc2c1B(O)OC2 [Compound 103, (3,5-dimethylpyrazol-1-yl)methyl 1-hydroxy-7-methoxy-3H-2,1-benzoxaborole-6-carboxylate]
≥ 80%: inhibition of growth at 20 ppm (Pythium ultimum) | pest or weed control at 200 ppm (Phytophthora infestans) | inhibition of growth at 20 ppm (Gaeumannomyces graminis)

COc1c(C(=O)OCCOC(C)C)ccc2c1B(O)OC2 [Compound 109, 2-isopropoxyethyl 1-hydroxy-7-methoxy-3H-2,1-benzoxaborole-6-carboxylate]
≥ 80%: inhibition of growth at 20 ppm (Pythium ultimum) | pest or weed control at 200 ppm (Phytophthora infestans) | inhibition of growth at 20 ppm [1] | inhibition of growth at 20 ppm (Gaeumannomyces graminis)

COc1c(C(=O)OCC#Cc2ccccc2)ccc2c1B(O)OC2 [Compound 132, 3-phenylprop-2-ynyl 1-hydroxy-7-methoxy-3H-2,1-benzoxaborole-6-carboxylate]
≥ 80%: pest or weed control at 200 ppm [6] | inhibition of growth at 20 ppm (Pythium ultimum) | inhibition of growth at 20 ppm [1] | inhibition of growth at 20 ppm [2] | inhibition of growth at 20 ppm (Gaeumannomyces graminis) | inhibition of growth at 20 ppm [3]
